{
  "source": "patent US4255421A",
  "about": "“Fortimicin aminoglycosides, process for production thereof, and use thereof” (Kowa Company, Ltd., priority 1978, dated 1981)",
  "format_in_all_cases": "cell-based",
  "key": {"[1]": {"tested_on": "Staphylococcus aureus 209P", "test": "antibacterial spectra (Table 1)"}, "[2]": {"tested_on": "Pseudomonas aeruginosa No. 12", "test": "antibacterial spectra (Table 1)"}, "[3]": {"tested_on": "Pseudomonas aeruginosa TI-13", "test": "antibacterial spectra (Table 1)"}, "Bacillus anthracis": {"tested_on": "Bacillus anthracis"}, "[4]": {"tested_on": "Klebsiella pneumoniae PCI 602", "test": "antibacterial spectra (Table 1)"}, "[5]": {"tested_on": "Pseudomonas aeruginosa No. 157", "test": "antibacterial spectra (Table 1)"}, "Streptococcus faecalis": {"tested_on": "Streptococcus faecalis", "test": "antibacterial spectra (Table 1)"}, "[6]": {"tested_on": "Bacillus subtilis ATCC 6633", "test": "antibacterial spectra (Table 1)"}, "Proteus inconstans": {"tested_on": "Proteus inconstans", "test": "antibacterial spectra (Table 1)"}, "[7]": {"tested_on": "Pseudomonas aeruginosa No. 315", "test": "antibacterial spectra (Table 1)", "conditions": "Pseudomonas aeruginosa No. 315 (resistant to gentamicin, tobramycin and amikacin)"}, "[8]": {"tested_on": "Pseudomonas aeruginosa Shibata", "test": "antibacterial spectra (Table 1)"}, "Bacillus cereus": {"tested_on": "Bacillus cereus", "test": "antibacterial spectra (Table 1)"}, "Escherichia coli NIHJ": {"tested_on": "Escherichia coli NIHJ", "test": "antibacterial spectra (Table 1)"}, "Proteus vulgaris OX-19": {"tested_on": "Proteus vulgaris OX-19", "test": "antibacterial spectra (Table 1)"}, "Escherichia coli ML1410": {"tested_on": "Escherichia coli ML1410", "test": "antibacterial spectra (Table 1)"}, "Serratia marcescens": {"tested_on": "Serratia marcescens", "test": "antibacterial spectra (Table 1)"}, "[9]": {"tested_on": "Pseudomonas aeruginosa K-11", "test": "antibacterial spectra (Table 1)", "conditions": "Pseudomonas aeruginosa K-11 (resistant to kanamycin)"}, "[10]": {"tested_on": "Pseudomonas aeruginosa A3", "test": "antibacterial spectra (Table 1)"}},
  "data": [
    {"substance": "4-N-glycyl KA-6606VI", "values": [
      {"measurement": "antibacterial spectra", "setting": "[1]", "result": 0.39},
      {"measurement": "antibacterial spectra", "setting": "[2]", "result": 0.78},
      {"measurement": "antibacterial spectra", "setting": "[3]", "result": 3.13},
      {"measurement": "antibacterial spectra", "setting": "Bacillus anthracis", "result": 0.20},
      {"measurement": "antibacterial spectra", "setting": "[4]", "result": 0.78},
      {"measurement": "antibacterial spectra", "setting": "[5]", "result": 3.13},
      {"measurement": "antibacterial spectra", "setting": "Streptococcus faecalis", "result": 25},
      {"measurement": "antibacterial spectra", "setting": "[6]", "result": 0.20},
      {"measurement": "antibacterial spectra", "setting": "Proteus inconstans", "result": 1.56},
      {"measurement": "antibacterial spectra", "setting": "[7]", "result": 12.5},
      {"measurement": "antibacterial spectra", "setting": "[8]", "result": 6.25},
      {"measurement": "antibacterial spectra", "setting": "Bacillus cereus", "result": 0.78},
      {"measurement": "antibacterial spectra", "setting": "Escherichia coli NIHJ", "result": 1.56},
      {"measurement": "antibacterial spectra", "setting": "Proteus vulgaris OX-19", "result": 1.56},
      {"measurement": "antibacterial spectra", "setting": "Escherichia coli ML1410", "result": 3.13},
      {"measurement": "antibacterial spectra", "setting": "Serratia marcescens", "result": 0.78},
      {"measurement": "antibacterial spectra", "setting": "[9]", "result": 6.25},
      {"measurement": "antibacterial spectra", "setting": "[10]", "result": 6.25}
    ]}
  ]
}
